The target in assay [1] is T1, Vitamin D3 receptor (Gallus gallus, UniProt O42392).
T1 sequence (O42392 whole entry): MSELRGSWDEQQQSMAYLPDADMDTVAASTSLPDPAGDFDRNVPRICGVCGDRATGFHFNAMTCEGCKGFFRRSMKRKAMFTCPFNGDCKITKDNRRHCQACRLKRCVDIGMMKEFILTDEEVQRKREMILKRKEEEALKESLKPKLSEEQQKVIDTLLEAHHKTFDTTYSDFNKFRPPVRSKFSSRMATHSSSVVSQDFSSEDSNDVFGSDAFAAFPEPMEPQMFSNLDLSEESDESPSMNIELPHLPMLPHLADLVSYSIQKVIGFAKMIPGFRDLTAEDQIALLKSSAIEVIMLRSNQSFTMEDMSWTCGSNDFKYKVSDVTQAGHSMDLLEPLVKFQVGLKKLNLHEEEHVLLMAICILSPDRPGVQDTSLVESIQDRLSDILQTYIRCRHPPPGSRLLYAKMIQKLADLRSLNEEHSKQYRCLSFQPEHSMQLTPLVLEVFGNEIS
The experiment in a line: In vitro relative binding affinity for chick intestinal vitamin D3 receptor compared to [3H]1.

In assay [2] the test system is HL-60. The assay is described as follows: Inhibitory activity on HL-60 cell differentiation induced by 10e-8 M of compound 1 (1,25-D3). The arrangement: scale not given: the % may be the effect or the level left.

Structures are written as SMILES.

In ChEMBL document CHEMBL1149208, “Synthesis of 1alpha,25-dihydroxyvitamin D3-26,23-lactams (DLAMs), a novel series of 1 alpha,25-dihydroxyvitamin D3 antagonist” (Bioorg Med Chem Lett, 2004) one finds IC50 and Activity data, which are given here for six molecules.

In the case of `C=C1/C(=C/C=C2/CCC[C@@]3(C)C2CCC3[C@H](C)C[C@@H]2C[C@@](C)(O)C(=O)N2Cc2ccccc2)C[C@@H](O)C[C@@H]1O` (stereo partly drawn), the concentration for half-maximal inhibition (IC50) in assay [1] is 30 nM.
`C=C1/C(=C/C=C2/CCC[C@@]3(C)C2CCC3[C@H](C)C[C@H]2C[C@](C)(O)C(=O)N2Cc2ccccc2)C[C@@H](O)C[C@@H]1O` (stereo partly drawn) registered an Activity in assay [2] of 47%. Further, the IC50 in assay [1] turned out to be 1.9 nM.
With `C=C1/C(=C/C=C2/CCC[C@@]3(C)C2CCC3[C@H](C)C[C@H]2C[C@](C)(O)C(=O)N2C)C[C@@H](O)C[C@@H]1O` (stereo partly drawn), in assay [2], the Activity was found to be 12%. The molecule also had a half-inhibitory concentration (IC50) in assay [1] of 10.2 nM.
In assay [1], `C=C1/C(=C/C=C2/CCC[C@]3(C)[C@@H]([C@H](C)C[C@@H]4C[C@@](C)(O)C(=O)N4C)CC[C@@H]23)C[C@@H](O)C[C@@H]1O` showed an IC50 of 50 nM.
`C=C1/C(=C/C=C2/CCC[C@]3(C)[C@@H]([C@H](C)C[C@@H]4C[C@](C)(O)C(=O)N4C)CC[C@@H]23)C[C@@H](O)C[C@@H]1O` (stereo in doubt; form 1) registered an IC50 in assay [1] greater than 100 nM.
Still for that read-out and setting: to `C=C1/C(=C/C=C2/CCC[C@]3(C)[C@@H]([C@H](C)C[C@@H]4C[C@](C)(O)C(=O)N4C)CC[C@@H]23)C[C@@H](O)C[C@@H]1O` (stereo in doubt; form 2) belongs greater than 100 nM.
